Data from PubChem BioAssay AID330 (DTP/NCI, 2004).
Where “and” joins values, the source holds several entries; their conditions need not be identical. Identical values can stand only once. Toxic doses and inconclusive results are not listed.

System: P388 leukemia ip, CD2F1 mice, survival T/C
Test: NCI In Vivo Anticancer Drug Screen. Data for tumor model P388 Leukemia (intraperitoneal) in CD2F1 (CDF1) mice
Settings: endpoint: median survival time, higher = longer survival
How it was run: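 Mice carrying the transplanted tumor received test compound or vehicle. Survival was recorded in each group, and the value is the treated-group measurement divided by that of the vehicle-treated control group.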

[1] = dose: 0.78 mg/kg/injection, schedule: Q01DX009 (ip), vehicle: water
[2] = dose: 1.56 mg/kg/injection, schedule: Q01DX009 (ip), vehicle: water
[3] = dose: 3.13 mg/kg/injection, schedule: Q01DX009 (ip), vehicle: water
[4] = dose: 6.25 mg/kg/injection, schedule: Q01DX009 (ip), vehicle: water
[5] = dose: 12.5 mg/kg/injection, schedule: Q01DX009 (ip), vehicle: water
[6] = dose: 100.0 mg/kg/injection, schedule: Q04DX003 (ip), vehicle: saline with Tween-80
[7] = dose: 50.0 mg/kg/injection, schedule: Q01DX005 (ip), vehicle: saline with Tween-80
[8] = dose: 100.0 mg/kg/injection, schedule: Q01DX005 (ip), vehicle: saline with Tween-80
[9] = dose: 50.0 mg/kg/injection, schedule: Q01DX005 (ip), vehicle: Klucel (hydroxypropylcellulose) (HPC)
[10] = dose: 100.0 mg/kg/injection, schedule: Q01DX005 (ip), vehicle: Klucel (hydroxypropylcellulose) (HPC)
[11] = dose: 200.0 mg/kg/injection, schedule: Q01DX005 (ip), vehicle: Klucel (hydroxypropylcellulose) (HPC)
[12] = dose: 25.0 mg/kg/injection, schedule: Q01DX009 (ip), vehicle: saline
[13] = dose: 25.0 mg/kg/injection, schedule: Q01DX005 (ip), vehicle: saline with Tween-80

SMILES: COc1cccc2c1C(=O)c1c(O)c3c(c(O)c1C2=O)CC(O)(/C(C)=N/NC(=O)CCCCC(=O)N/N=C(\C)C1(O)Cc2c(O)c4c(c(O)c2C(OC2CC(N)C(O)C(C)O2)C1)C(=O)c1c(OC)cccc1C4=O)CC3OC1CC(N)C(O)C(C)O1 (stereo not drawn)
- T/C (dose: 0.2 mg/kg/injection, schedule: Q01DX009 (ip), vehicle: water): 118 % of control
- T/C [1]: 154 % of control
- T/C [2]: 157 % of control and 172 % of control
- T/C [3]: 186 % of control and 189 % of control
- T/C [4]: 281 % of control and 289 % of control
- T/C [5]: 100 % of control and 102 % of control

SMILES: O=C(O)c1c[nH]c2cc(OCCOc3ccc(Br)cc3)ccc2c1=O
- T/C [6]: 87 % of control
- T/C (dose: 200.0 mg/kg/injection, schedule: Q04DX003 (ip), vehicle: saline with Tween-80): 93 % of control
- T/C (dose: 400.0 mg/kg/injection, schedule: Q04DX003 (ip), vehicle: saline with Tween-80): 91 % of control

SMILES: C1OCN2CSCC12 (stereo not drawn)
- T/C (dose: 100.0 mg/kg/injection, schedule: Q04DX002 (ip), vehicle: saline with Tween-80): 116 % of control

SMILES: O=C1NC(=O)C2(Cc3cccc4cccc2c34)N1 (stereo not drawn)
- T/C [7]: 103 % of control
- T/C [8]: 100 % of control
- T/C (dose: 200.0 mg/kg/injection, schedule: Q01DX005 (ip), vehicle: saline with Tween-80): 99 % of control

SMILES: COC(=O)[C@H]1[C@H]2C[C@@H]3c4[nH]c5cc(OC)ccc5c4CCN3C[C@H]2C[C@@H](OC(=O)c2cc(OC)c(OC)c(OC)c2)[C@@H]1OC
- T/C (dose: 0.25 mg/kg/injection, schedule: Q01DX009 (ip), vehicle: Klucel (hydroxypropylcellulose) (HPC)): 100 % of control
- T/C (dose: 0.5 mg/kg/injection, schedule: Q01DX009 (ip), vehicle: Klucel (hydroxypropylcellulose) (HPC)): 97 % of control
- T/C (dose: 1.0 mg/kg/injection, schedule: Q01DX009 (ip), vehicle: Klucel (hydroxypropylcellulose) (HPC)): 97 % of control
- T/C (dose: 2.0 mg/kg/injection, schedule: Q01DX009 (ip), vehicle: Klucel (hydroxypropylcellulose) (HPC)): 95 % of control
- T/C (dose: 4.0 mg/kg/injection, schedule: Q01DX009 (ip), vehicle: Klucel (hydroxypropylcellulose) (HPC)): 96 % of control

SMILES: NC(CCCCNC(=O)CCCCCCCCC(=O)NCCCCC(N)C(=O)O)C(=O)O (stereo not drawn)
- T/C (dose: 50.0 mg/kg/injection, schedule: Q01DX009 (ip), vehicle: suspension in saline): 95 % of control
- T/C (dose: 100.0 mg/kg/injection, schedule: Q01DX009 (ip), vehicle: suspension in saline): 105 % of control
- T/C (dose: 200.0 mg/kg/injection, schedule: Q01DX009 (ip), vehicle: suspension in saline): 100 % of control

SMILES: CN(C)C1=Nc2ccccc2NC(=O)C1
- T/C [9]: 105 % of control
- T/C [10]: 105 % of control
- T/C [11]: 105 % of control

SMILES: CCNS(=O)(=O)c1ccc2c(c1)nc(SC)n2CC
- T/C (dose: 60.0 mg/kg/injection, schedule: Q01DX005 (ip), vehicle: Klucel (hydroxypropylcellulose) (HPC)): 104 % of control
- T/C (dose: 120.0 mg/kg/injection, schedule: Q01DX005 (ip), vehicle: Klucel (hydroxypropylcellulose) (HPC)): 105 % of control
- T/C (dose: 240.0 mg/kg/injection, schedule: Q01DX005 (ip), vehicle: Klucel (hydroxypropylcellulose) (HPC)): 104 % of control

SMILES: Cc1ccc(S(=O)(=O)N(Cc2ccc(Cl)cc2)S(=O)(=O)c2ccc(C)cc2)cc1
- T/C [12]: 110 % of control
- T/C (dose: 50.0 mg/kg/injection, schedule: Q01DX009 (ip), vehicle: saline): 108 % of control
- T/C (dose: 100.0 mg/kg/injection, schedule: Q01DX009 (ip), vehicle: saline): 100 % of control
- T/C (dose: 200.0 mg/kg/injection, schedule: Q01DX009 (ip), vehicle: Klucel (hydroxypropylcellulose) (HPC)): 100 % of control

SMILES: CC1(CCC(=O)c2cc3c(cc2Br)OCO3)OCCO1
- T/C [13]: 99 % of control
- T/C [7]: 99 % of control
- T/C [8]: 100 % of control

SMILES: CC(NC(=O)C(CCCCN)N(C(=O)OCc1ccccc1)C(=O)OCc1ccccc1)C(=O)O (stereo not drawn) (tested in a mixture with another compound)
- T/C (dose: 50.0 mg/kg/injection, schedule: Q01DX005 (ip), vehicle: suspension in saline): 111 % of control
- T/C (dose: 100.0 mg/kg/injection, schedule: Q01DX005 (ip), vehicle: suspension in saline): 111 % of control
- T/C (dose: 200.0 mg/kg/injection, schedule: Q01DX005 (ip), vehicle: suspension in saline): 110 % of control

SMILES: CCOC1c2cc3c(cc2NC(=O)N1C)OCO3 (stereo not drawn)
- T/C (dose: 37.5 mg/kg/injection, schedule: Q01DX009 (ip), vehicle: saline with Tween-80): 97 % of control
- T/C (dose: 75.0 mg/kg/injection, schedule: Q01DX009 (ip), vehicle: saline with Tween-80): 94 % of control
- T/C (dose: 150.0 mg/kg/injection, schedule: Q01DX009 (ip), vehicle: saline with Tween-80): 100 % of control

SMILES: O=c1c2ccccc2oc2c(Br)c3c(c(O)c12)CCCC3
- T/C [9]: 103 % of control
- T/C [10]: 87 % of control
- T/C [11]: 96 % of control

SMILES: CCCCCC(CN(C)C)C(=O)/C=C/c1ccc(Cl)c(Cl)c1 (stereo not drawn)
- T/C (dose: 1.56 mg/kg/injection, schedule: Q01DX009 (ip), vehicle: saline): 100 % of control
- T/C (dose: 3.12 mg/kg/injection, schedule: Q01DX009 (ip), vehicle: saline): 100 % of control
- T/C (dose: 6.25 mg/kg/injection, schedule: Q01DX009 (ip), vehicle: saline): 102 % of control
- T/C (dose: 12.5 mg/kg/injection, schedule: Q01DX009 (ip), vehicle: saline): 109 % of control
- T/C [12]: 92 % of control

SMILES: COc1cc(NCCCCCNC(C)C(C)C)c2ncccc2c1 (stereo not drawn)
- T/C (dose: 12.5 mg/kg/injection, schedule: Q01DX005 (ip), vehicle: saline with Tween-80): 93 % of control
- T/C [13]: 95 % of control
- T/C [7]: 100 % of control and 96 % of control

SMILES: CC(=O)Nc1cccc2c(C)cc(=O)[nH]c12
- T/C (dose: 100.0 mg/kg/injection, schedule: Q01DX001 (ip), vehicle: Klucel (hydroxypropylcellulose) (HPC)): 91 % of control
- T/C (dose: 200.0 mg/kg/injection, schedule: Q01DX001 (ip), vehicle: Klucel (hydroxypropylcellulose) (HPC)): 97 % of control
- T/C (dose: 400.0 mg/kg/injection, schedule: Q01DX001 (ip), vehicle: Klucel (hydroxypropylcellulose) (HPC)): 98 % of control

SMILES: COc1cc2c(cc1C)C1=C(C)C(=O)OC1[C@@H](O)[C@@H]2C (stereo partly drawn)
- T/C (dose: 2.25 mg/kg/injection, schedule: Q01DX005 (ip), vehicle: Klucel (hydroxypropylcellulose) (HPC)): 104 % of control
- T/C (dose: 4.5 mg/kg/injection, schedule: Q01DX005 (ip), vehicle: Klucel (hydroxypropylcellulose) (HPC)): 101 % of control
- T/C (dose: 9.0 mg/kg/injection, schedule: Q01DX005 (ip), vehicle: Klucel (hydroxypropylcellulose) (HPC)): 101 % of control
- T/C (dose: 18.0 mg/kg/injection, schedule: Q01DX005 (ip), vehicle: Klucel (hydroxypropylcellulose) (HPC)): 94 % of control

SMILES: NC(=O)CCC(NC(=O)OCC1c2ccccc2-c2ccccc21)C(=O)O (stereo not drawn)
- T/C [9]: 104 % of control
- T/C [10]: 103 % of control
- T/C [11]: 104 % of control

SMILES: C/C(=C1/N=C(c2ccccc2)OC1=O)c1ccc(C)cc1
- T/C [9]: 106 % of control
- T/C [10]: 90 % of control
- T/C [11]: 106 % of control

SMILES: CC1CCCC2CCCOCN12 (stereo not drawn)
- T/C (dose: 12.5 mg/kg/injection, schedule: Q01DX005 (ip), vehicle: Klucel (hydroxypropylcellulose) (HPC)): 107 % of control
- T/C (dose: 12.5 mg/kg/injection, schedule: Q01DX005 (ip), vehicle: saline): 103 % of control
- T/C (dose: 25.0 mg/kg/injection, schedule: Q01DX005 (ip), vehicle: Klucel (hydroxypropylcellulose) (HPC)): 106 % of control
- T/C (dose: 25.0 mg/kg/injection, schedule: Q01DX005 (ip), vehicle: saline): 99 % of control
- T/C [9]: 104 % of control
- T/C (dose: 50.0 mg/kg/injection, schedule: Q01DX005 (ip), vehicle: saline): 100 % of control and 104 % of control
- T/C [10]: 101 % of control
- T/C (dose: 100.0 mg/kg/injection, schedule: Q01DX005 (ip), vehicle: saline): 122 % of control and 98 % of control

SMILES: COc1cccc2c1C(=O)c1c(O)c3c(c(O)c1C2=O)CC(O)(/C(C)=N/NC(=O)CCCCCC(=O)N/N=C(\C)C1(O)Cc2c(O)c4c(c(O)c2C(OC2CC(N)C(O)C(C)O2)C1)C(=O)c1c(OC)cccc1C4=O)CC3OC1CC(N)C(O)C(C)O1 (stereo not drawn)
- T/C [1]: 158 % of control
- T/C [2]: 157 % of control and 163 % of control
- T/C [3]: 153 % of control and 154 % of control
- T/C [4]: 200 % of control and 202 % of control
- T/C [5]: 88 % of control and 93 % of control

SMILES: CC(=O)NCc1ccccc1N1CCCC1
- T/C (dose: 100.0 mg/kg/injection, schedule: Q04DX003 (ip), vehicle: saline): 101 % of control
- T/C (dose: 200.0 mg/kg/injection, schedule: Q04DX003 (ip), vehicle: saline): 106 % of control
- T/C (dose: 400.0 mg/kg/injection, schedule: Q04DX003 (ip), vehicle: saline): 101 % of control

SMILES: COc1c(Br)cc(/C=C(/C)[N+](=O)[O-])cc1Br
- T/C (dose: 25.0 mg/kg/injection, schedule: Q04DX003 (ip), vehicle: saline with Tween-80): 112 % of control
- T/C (dose: 50.0 mg/kg/injection, schedule: Q04DX003 (ip), vehicle: saline with Tween-80): 106 % of control
- T/C [6]: 122 % of control
